The values that follow come from patent publication US9200008B2 (ASKA PHARMACEUTICAL CO., LTD., priority 2010, dated 2015).

SMILES strings stand for the structures.

In the assay the test system is Human prostate cancer cell lines (PC-3 cells). The experiment in a line: Measurement of cell death-inducing activity (Test Example 1). Conditions: PC-3, 48 h, 48 hours after addition, tested at 10, 1, 0.1, 0.025 and 0.00625 μmol/L, qualitative evaluation of 10 fields, read-out: Concentration showing the cell death-inducing activity (cell death-inducing rate not less than 40%). Type of assay: cell-based. In outline:
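PC-3 cells seeded at 1×10^5 cells/well and grown 48 h at 37 °C, 5% CO2, then exposed to compound at 10, 1, 0.1, 0.025 and 0.00625 μmol/L (DMSO control) for a further 48 h. Activity was called where cell death-inducing rate was not less than 40%.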
Regarding `COc1cc(F)ccc1-c1nc(C)c(NC(=O)OCc2ccc3c(c2)nc(C)n3C)s1` [Example 9-75], the minimal effective concentration was determined as 0.1 µM.

In the case of `Cc1cc(/C=N/NC(=O)c2cc(-c3ccc(Cl)cc3Cl)ns2)cc(C)c1O` [Example 27-4], the minimal effective concentration came out at 1 µM.

Regarding `CCn1cnc2cc(NC(=O)OCc3cc(-c4ccc(F)cc4OC)nn3C)ccc21` [Example 13-82], the minimal effective concentration came out at 0.025 µM.

Turning to `CCc1nc(-c2ccc(Cl)cc2OC)sc1NC(=O)OCc1ccc2c(c1)ncn2CC` [Example 9-164], the minimal effective concentration turned out to be 0.025 µM.

In the case of `Cn1nc2c(c1NC(=O)OCc1ccc3c(cnn3C)c1)COc1ccccc1-2` [Example 9-324], the minimal effective concentration was determined as 10 µM.

On to `O=C(N/N=C/c1ccc([N+](=O)[O-])c(O)c1)c1cc(-c2ccc(Cl)cc2Cl)n[nH]1` [Example 21-15], for which the minimal effective concentration is 10 µM.

`COc1ccc(-c2cc(NC(=O)OCc3ccc4c(c3)ncn4C)n(C)n2)cc1OC` [Example 9-231]: the minimal effective concentration was determined as 1 µM.

For the compound `COc1ccc(-c2nc(C)c(NC(=O)OCc3ccc4c(c3)ncn4C(C)C)s2)c(OC)c1` [Example 9-72], the minimal effective concentration worked out at 1 µM.

Regarding `Cc1cc(F)ccc1-c1cc(NC(=O)OCc2ccc3c(c2)nc2n3CCOC2)n(C)n1` [Example 9-253], the minimal effective concentration was determined as 0.1 µM.

For the compound `COc1ccc(/C=N/NC(=O)c2sc(-c3ccc(Cl)cc3)nc2C)cc1OC` [Example 23-42], the minimal effective concentration stood at 10 µM.

Take `CCc1ccccc1-c1nc(C)c(NC(=O)OCc2ccc3c(cnn3C)c2)s1` [Example 9-125]: the minimal effective concentration was determined as 1 µM.

Regarding `COc1ccc(/C=N/NC(=O)c2oc(-c3ccccc3OC)nc2C)cc1C` [Example 26-3], the minimal effective concentration turned out to be 10 µM.

Take `CCCn1cnc2cc(COC(=O)Nc3sc(-c4ccccc4OC)nc3C)ccc21` [Example 9-66]: the minimal effective concentration turned out to be 1 µM.

Consider `CCn1nc(-c2ccc(F)cc2OC)cc1NC(=O)OCc1ccc2c(c1)nc1n2CCC1` [Example 9-257], for which the minimal effective concentration is 0.1 µM.

`Cc1cc(/C=N/NC(=O)c2cnc(-c3ccccc3C)s2)ccc1O` [Example 23-51]: the minimal effective concentration turned out to be 10 µM.

With `Cc1ccc(-c2nc(C)c(COC(=O)Nc3ccc4c(c3)nc3n4CCC3)s2)c(C)c1` [Example 13-28], the minimal effective concentration was 0.025 µM.

Consider `COc1ccc(/C=N/NC(=O)c2cc(-c3ccccc3Cl)n[nH]2)cc1O` [Example 22-1, 5-(2-Chlorophenyl)-2H-pyrazole-3-carboxylic acid [1-(3-hydroxy-4-methoxyphenyl)methylidene]hydrazide], for which the minimal effective concentration was determined as 10 µM.

On to `COc1cc(C)ccc1-c1nc(C)c(NC(=O)OCc2ccc3c(c2)nc2n3CCCC2)s1` [Example 9-112], for which the minimal effective concentration amounted to 0.1 µM.

Take `CCc1nc(-c2ccc(F)cc2OC)sc1NC(=O)OCc1ccc2c(c1)nc1n2CCOC1` [Example 9-357]: the minimal effective concentration came to 0.025 µM.

As to `COc1ccccc1-c1nc(C)c(NC(=O)OCc2ccc3c(c2)nc2n3CCCC2)s1` [Example 9-110], the minimal effective concentration is 1 µM.

On to `CCc1nc(-c2ccc(Cl)cc2OC)sc1NC(=O)OCc1ccc2nn(CC)cc2c1` [Example 9-176], for which the minimal effective concentration came out at 0.025 µM.

Take `Cc1cc(/C=N/NC(=O)c2snc(-c3ccc(Cl)cc3Cl)c2N)cc(C)c1O` [Example 27-15, 4-Amino-3-(2,4-dichlorophenyl)isothiazole-5-carboxylic acid[1-(4-hydroxy-3,5-dimethylphenyl)methylidene]hydrazide]: the minimal effective concentration came out at 10 µM.

For the compound `Cc1cc(Cl)ccc1-c1nc(C)c(NC(=O)OCc2ccc3c(c2)nnn3C)s1` [Example 9-20], the minimal effective concentration came out at 0.025 µM.

Take `CCN(Cc1ccc(OC)cc1)NC(=O)c1sc(-c2ccc(Cl)cc2C)nc1C` [Example 16-15]: the minimal effective concentration stood at 1 µM.

With `CCc1nc(-c2ccc(Cl)cc2C)sc1NC(=O)OCc1ccc2nn(CC)cc2c1` [Example 9-370], the minimal effective concentration was 0.1 µM.

`CCn1ncc2cc(COC(=O)Nc3sc(-c4ccccc4OC)nc3C)ccc21` [Example 9-134]: the minimal effective concentration was 0.025 µM.

On to `COc1ccc(/C=N/NC(=O)c2cc(-c3ccc(Cl)cc3)oc2C)cc1O` [Example 23-166, 5-(4-Chlorophenyl)-2-methylfuran-3-carboxylic acid [1-(3-hydroxy-4-methoxyphenyl)methylidene]hydrazide], for which the minimal effective concentration turned out to be 1 µM.

`COc1cc(F)ccc1-c1cc(COC(=O)Nc2ccc3c(c2)ncn3C)n(C)n1` [Example 13-80]: the minimal effective concentration stood at 0.00625 µM.

On to `COc1ccccc1-c1cc(NC(=O)OCc2ccc3c(c2)nc2n3CCCC2)n(C)n1` [Example 9-263], for which the minimal effective concentration is 1 µM.

As for `COc1ccc(CN(C)NC(=O)c2sc(-c3ccc(Cl)cc3C)nc2C)cc1` [Example 16-6], the minimal effective concentration amounted to 0.1 µM.

As to `COc1cc(Cl)ccc1-c1cc(COC(=O)Nc2ccc3c(c2)ncn3C)nn1C` [Example 13-137], the minimal effective concentration was determined as 10 µM.

In the case of `COc1cc(C)ccc1-c1nc(C)c(NC(=O)OCc2ccc3c(c2)nc2n3CCNC2)s1` [Example 39-1, [2-(2-Methoxy-4-methylphenyl)-4-methylthiazol-5-yl]carbamic acid 1,2,3,4-tetrahydrobenzo[4,5]imidazo[1,2-a]pyrazin-8-ylmethyl ester], the minimal effective concentration amounted to 0.1 µM.

In the case of `COc1ccc(/C=N/NC(=O)c2cc(-c3ccc(Cl)cc3OC)cn2C)cc1` [Example 23-168, 4-(4-Chloro-2-methoxyphenyl)-1-methyl-1H-pyrrole-2-carboxylic acid (4-methoxybenzylidene)hydrazide], the minimal effective concentration is 1 µM.

Consider `CCn1nc(-c2ccccc2OC)cc1COC(=O)Nc1ccc2c(c1)nc1n2CCOC1` [Example 13-96], for which the minimal effective concentration came out at 0.1 µM.

Consider `Cc1ccc(-c2nc(C)c(NC(=O)OCc3ccc4c(c3)ncn4C)s2)cc1` [Example 9-35], for which the minimal effective concentration is 0.1 µM.

On to `CCCOc1ccccc1-c1nc(C)c(C(=O)N/N=C/c2ccc(OC)cc2)s1` [Example 23-149], for which the minimal effective concentration was found to be 0.1 µM.

For `O=C(N/N=C/c1ccc(O)cc1Cl)c1cc(-c2ccc(Cl)cc2Cl)n[nH]1` [Example 21-8], the minimal effective concentration was 10 µM.

For `CCn1cnc2cc(COC(=O)Nc3sc(-c4ccc(F)cc4OC)nc3C)ccc21` [Example 9-58], the minimal effective concentration is 0.00625 µM.

As for `COc1cc(Cl)ccc1-c1nc(C)c(COC(=O)Nc2ccc3c(c2)nc2n3CCC2)s1` [Example 13-27], the minimal effective concentration turned out to be 1 µM.

For the compound `COc1ccc(/C=N/NC(=O)c2cc(-c3ccc(Cl)cc3OC)cn2C)cc1O` [Example 23-170, 4-(4-Chloro-2-methoxyphenyl)-1-methyl-1H-pyrrole-2-carboxylic acid (3-hydroxy-4-methoxybenzylidene)hydrazide], the minimal effective concentration stood at 10 µM.

As for `CCn1cnc2cc(COC(=O)Nc3cc(-c4ccccc4C(F)(F)F)nn3C)ccc21` [Example 9-212], the minimal effective concentration came out at 10 µM.

With `COc1cc(Cl)ccc1-c1nc(C)c(C(=O)N/N=C/c2cc(C)c(O)c(C)c2)s1` [Example 23-84], the minimal effective concentration is 0.1 µM.

Take `Cc1cc(F)ccc1-c1nc(C)c(NC(=O)OCc2ccc3c(c2)nc(C)n3C)s1` [Example 9-80]: the minimal effective concentration worked out at 0.1 µM.

With `COc1cc(C)ccc1-c1cc(COC(=O)Nc2ccc3c(c2)nc2n3CCC2)n(C)n1` [Example 13-112], the minimal effective concentration is 0.00625 µM.

Turning to `Cc1cccc(-c2c[nH]c(C(=O)N/N=C/c3cc(C)c(O)c(C)c3)c2)c1C` [Example 24-1, 4-(2,3-Dimethylphenyl)-1H-pyrrole-2-carboxylic acid [1-(4-hydroxy-3,5-dimethylphenyl)methylidene]hydrazide], the minimal effective concentration was 1 µM.

`COc1cc(F)ccc1-c1cc(NC(=O)OCc2ccc3c(c2)nc2n3CCOC2)n(C)n1` [Example 9-245]: the minimal effective concentration amounted to 0.025 µM.

With `COc1cc(C)ccc1-c1nc(C)c(NC(=O)OCc2ccc3c(c2)nc2n3CCSC2)s1` [Example 40-2, [2-(2-Methoxy-4-methylphenyl)-4-methylthiazol-5-yl]carbamic acid 3,4-dihydro-1H-2-thia-4a,9-diazafluoren-7-ylmethyl ester], the minimal effective concentration stood at 0.025 µM.

For the compound `CCCc1nc(-c2ccc(Cl)cc2)sc1C(=O)N/N=C/c1ccc(OC)c(O)c1` [Example 23-102], the minimal effective concentration was 10 µM.

Take `CCc1nc(-c2ccc(Cl)cc2)sc1C(=O)N/N=C/c1ccc(O)c(C)c1` [Example 23-108]: the minimal effective concentration was 10 µM.

For the compound `Cc1nc(-c2cccc(F)c2)sc1NC(=O)OCc1ccc2c(c1)ncn2C` [Example 9-44], the minimal effective concentration came to 1 µM.

In the case of `CCn1nc(-c2ccc(C)cc2C)cc1NC(=O)OCc1ccc2c(c1)nc1n2CCOC1` [Example 9-252], the minimal effective concentration stood at 0.1 µM.

As for `COc1cc(Cl)ccc1-c1cc(COC(=O)Nc2ccc3c(c2)nc2n3CCOC2)n(C)n1` [Example 13-99], the minimal effective concentration amounted to 0.00625 µM.

Regarding `COc1ccccc1-c1nc(C)c(C(=O)N/N=C/c2cc(C)c(O)c(C)c2)s1` [Example 23-120], the minimal effective concentration turned out to be 0.1 µM.

As for `COc1ccc(CN(C)NC(=O)c2sc(-c3ccccc3C)nc2C)cc1` [Example 16-3], the minimal effective concentration was found to be 1 µM.

For the compound `CCc1nc(-c2ccc(F)cc2C)sc1NC(=O)OCc1ccc2c(c1)nc1n2CCC1` [Example 9-348], the minimal effective concentration was 0.1 µM.

For `Cc1nc(-c2ccc(Cl)cc2)sc1C(=O)N/N=C/c1ccc2c(c1)CCO2` [Example 23-152], the minimal effective concentration stood at 10 µM.
